Source: US20120082658A1, “Methods for the Treatment of Allergic Diseases” (VentiRx Pharmaceuticals, Inc., priority 2010, published 2012)
Read-outs that look alike come from different tables or passages of the source.

How the values were obtained:
Type in all cases: cell-based
[1] = target: T1, TLR7 (Homo sapiens, UniProt Q9NYK1); assay: HEK293 cells transfected with human TLR7, NF-κB driven reporter; details: read-out: EC50, activation of TLR7
T1 construct: expressed in transfected cells; host or cells: HEK293
T1 sequence (Q9NYK1 27-1049): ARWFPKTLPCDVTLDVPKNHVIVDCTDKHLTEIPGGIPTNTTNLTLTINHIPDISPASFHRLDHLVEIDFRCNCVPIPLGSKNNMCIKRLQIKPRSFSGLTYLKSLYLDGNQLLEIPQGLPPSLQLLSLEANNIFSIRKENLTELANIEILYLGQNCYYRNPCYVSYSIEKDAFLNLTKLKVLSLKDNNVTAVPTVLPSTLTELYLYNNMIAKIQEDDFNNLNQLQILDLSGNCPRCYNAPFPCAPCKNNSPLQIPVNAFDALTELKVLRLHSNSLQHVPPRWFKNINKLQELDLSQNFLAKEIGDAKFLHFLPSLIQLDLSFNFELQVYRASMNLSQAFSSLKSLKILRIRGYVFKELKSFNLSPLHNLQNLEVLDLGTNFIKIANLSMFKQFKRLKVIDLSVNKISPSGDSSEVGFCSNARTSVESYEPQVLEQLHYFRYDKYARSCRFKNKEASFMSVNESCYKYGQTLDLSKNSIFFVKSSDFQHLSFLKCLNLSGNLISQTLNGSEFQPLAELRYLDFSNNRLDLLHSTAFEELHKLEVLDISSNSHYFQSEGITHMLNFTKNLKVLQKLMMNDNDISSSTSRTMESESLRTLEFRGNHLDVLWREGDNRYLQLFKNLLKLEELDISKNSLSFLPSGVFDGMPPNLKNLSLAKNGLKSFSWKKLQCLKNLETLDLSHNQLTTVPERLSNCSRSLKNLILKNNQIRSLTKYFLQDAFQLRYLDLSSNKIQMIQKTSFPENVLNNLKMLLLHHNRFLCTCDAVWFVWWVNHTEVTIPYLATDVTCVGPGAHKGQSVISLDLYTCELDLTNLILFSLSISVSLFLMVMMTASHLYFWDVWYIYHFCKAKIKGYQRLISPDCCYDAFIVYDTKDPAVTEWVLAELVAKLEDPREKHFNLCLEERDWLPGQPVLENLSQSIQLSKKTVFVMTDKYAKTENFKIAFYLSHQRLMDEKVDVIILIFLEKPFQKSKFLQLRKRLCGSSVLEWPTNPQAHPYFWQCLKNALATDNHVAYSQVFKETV
Experimental: (§1) FIG. 8 is two graphs depicting the potency and selectivity of VTX-378 for TLR8. The half-maximal effective concentration (EC50) for VTX-378 activation of TLR8 and TLR7 was assessed in peripheral blood mononuclear cells (PBMCs) by the amount of secreted TNFα (A) and by the activity of NF-κB (B) from 15 healthy donors and also in HEK293 cells transfected with various human TLRs.
(§2) Preclinical studies were performed with VTX-378, the active pharmaceutical ingredient in VTX-1463. The specificity of VTX-378 for human TLR8 relative to other TLRs was assessed in transfected Human Embryonic Kidney 293 (HEK293) cells engineered to express individual TLRs (2-9) via transfection, and assessed using an NF-κB driven reporter system. […] The pharmacologic effects of VTX-378 were characterized in vitro using isolated human peripheral blood mononuclear cells (PBMCs).

[2] = target: T2, TLR2 (Homo sapiens, UniProt O60603); assay: HEK293 cells transfected with human TLR2, NF-κB driven reporter; details: concentration up to 25 uM
T2 construct: expressed in transfected cells; host or cells: HEK293
T2 sequence (O60603 21-784): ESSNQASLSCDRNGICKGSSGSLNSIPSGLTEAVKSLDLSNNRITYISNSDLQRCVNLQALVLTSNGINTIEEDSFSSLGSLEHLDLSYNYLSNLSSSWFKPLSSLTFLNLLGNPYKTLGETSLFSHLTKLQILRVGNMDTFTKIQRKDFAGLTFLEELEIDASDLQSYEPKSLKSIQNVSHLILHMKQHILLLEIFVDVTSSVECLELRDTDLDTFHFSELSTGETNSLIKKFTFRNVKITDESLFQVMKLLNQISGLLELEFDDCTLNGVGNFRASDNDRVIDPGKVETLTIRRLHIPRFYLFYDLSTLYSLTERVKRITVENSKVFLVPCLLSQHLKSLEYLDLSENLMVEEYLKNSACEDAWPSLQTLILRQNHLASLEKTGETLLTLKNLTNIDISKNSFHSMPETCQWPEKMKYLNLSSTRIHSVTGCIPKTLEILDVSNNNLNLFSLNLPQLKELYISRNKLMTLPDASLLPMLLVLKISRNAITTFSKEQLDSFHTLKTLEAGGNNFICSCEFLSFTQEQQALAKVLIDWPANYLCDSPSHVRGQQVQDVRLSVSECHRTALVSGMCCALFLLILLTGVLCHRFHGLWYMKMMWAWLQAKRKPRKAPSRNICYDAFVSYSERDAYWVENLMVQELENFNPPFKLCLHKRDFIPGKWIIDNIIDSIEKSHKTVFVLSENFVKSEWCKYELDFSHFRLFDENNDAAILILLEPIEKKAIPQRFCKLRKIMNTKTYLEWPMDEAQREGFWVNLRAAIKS
Experimental: as §1, §2

[3] = target: T3, TLR4 (Homo sapiens, UniProt O00206+Q9Y6Y9); assay: HEK293 cells transfected with human TLR4, NF-κB driven reporter
T3 construct: expressed in transfected cells; host or cells: HEK293
T3 sequence (O00206 24-839): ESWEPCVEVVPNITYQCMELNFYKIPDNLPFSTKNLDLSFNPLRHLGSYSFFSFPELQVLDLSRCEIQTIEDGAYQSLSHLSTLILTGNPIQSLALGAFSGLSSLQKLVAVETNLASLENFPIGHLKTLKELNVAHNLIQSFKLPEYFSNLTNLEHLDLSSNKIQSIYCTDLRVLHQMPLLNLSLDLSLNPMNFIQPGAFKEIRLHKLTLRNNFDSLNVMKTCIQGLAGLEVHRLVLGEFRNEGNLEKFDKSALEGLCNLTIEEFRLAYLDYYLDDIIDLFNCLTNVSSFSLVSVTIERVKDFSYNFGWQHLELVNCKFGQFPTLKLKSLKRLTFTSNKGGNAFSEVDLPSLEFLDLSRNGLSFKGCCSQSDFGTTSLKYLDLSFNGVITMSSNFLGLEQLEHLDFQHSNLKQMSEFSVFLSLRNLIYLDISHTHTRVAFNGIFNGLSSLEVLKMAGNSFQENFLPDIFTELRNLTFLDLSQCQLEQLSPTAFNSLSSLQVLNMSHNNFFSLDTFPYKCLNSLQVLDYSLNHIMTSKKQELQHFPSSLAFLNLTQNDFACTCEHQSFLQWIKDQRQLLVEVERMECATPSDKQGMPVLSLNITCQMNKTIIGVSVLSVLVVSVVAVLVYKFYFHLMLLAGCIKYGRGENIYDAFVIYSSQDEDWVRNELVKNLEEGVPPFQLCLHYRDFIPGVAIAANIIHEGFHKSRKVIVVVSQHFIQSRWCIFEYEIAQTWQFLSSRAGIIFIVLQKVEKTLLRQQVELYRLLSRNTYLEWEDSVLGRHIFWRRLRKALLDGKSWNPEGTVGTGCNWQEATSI
T3 sequence (Q9Y6Y9 17-160 limits assumed): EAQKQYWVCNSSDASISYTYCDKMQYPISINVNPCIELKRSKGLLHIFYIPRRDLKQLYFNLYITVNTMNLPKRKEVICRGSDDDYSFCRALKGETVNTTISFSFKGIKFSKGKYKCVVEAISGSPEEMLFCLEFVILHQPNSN
Experimental: as §1, §2

[4] = target: T4, TLR5 (Homo sapiens, UniProt O60602); assay: HEK293 cells transfected with human TLR5, NF-κB driven reporter; details: concentration up to 25 uM
T4 construct: expressed in transfected cells; host or cells: HEK293
T4 sequence (O60602 21-858): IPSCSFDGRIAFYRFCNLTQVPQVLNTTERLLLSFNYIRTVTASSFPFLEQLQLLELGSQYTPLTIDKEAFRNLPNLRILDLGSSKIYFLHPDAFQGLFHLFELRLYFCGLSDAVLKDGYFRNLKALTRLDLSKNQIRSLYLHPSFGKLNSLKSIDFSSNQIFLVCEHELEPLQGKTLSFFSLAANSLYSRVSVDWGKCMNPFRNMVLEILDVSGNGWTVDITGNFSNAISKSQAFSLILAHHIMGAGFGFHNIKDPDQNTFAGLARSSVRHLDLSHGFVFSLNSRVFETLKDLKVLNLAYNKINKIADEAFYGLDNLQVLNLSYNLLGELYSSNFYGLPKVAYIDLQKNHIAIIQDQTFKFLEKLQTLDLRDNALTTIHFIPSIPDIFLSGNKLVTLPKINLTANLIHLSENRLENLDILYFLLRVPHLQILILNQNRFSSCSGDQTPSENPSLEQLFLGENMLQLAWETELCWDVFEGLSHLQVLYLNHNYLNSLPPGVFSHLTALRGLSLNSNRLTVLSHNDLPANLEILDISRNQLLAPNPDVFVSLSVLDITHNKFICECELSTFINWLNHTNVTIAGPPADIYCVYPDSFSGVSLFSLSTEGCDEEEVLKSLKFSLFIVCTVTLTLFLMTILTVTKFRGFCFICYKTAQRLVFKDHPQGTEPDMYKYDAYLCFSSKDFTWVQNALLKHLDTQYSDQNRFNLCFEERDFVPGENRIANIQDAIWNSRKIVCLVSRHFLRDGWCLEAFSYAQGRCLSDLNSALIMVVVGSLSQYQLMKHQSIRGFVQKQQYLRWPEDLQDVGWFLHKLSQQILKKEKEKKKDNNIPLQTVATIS
Experimental: as §1, §2

[5] = target: T5, TLR6 (Homo sapiens, UniProt Q9Y2C9); assay: HEK293 cells transfected with human TLR6, NF-κB driven reporter; details: concentration up to 25 uM
T5 construct: expressed in transfected cells; host or cells: HEK293
T5 sequence (Q9Y2C9 32-796): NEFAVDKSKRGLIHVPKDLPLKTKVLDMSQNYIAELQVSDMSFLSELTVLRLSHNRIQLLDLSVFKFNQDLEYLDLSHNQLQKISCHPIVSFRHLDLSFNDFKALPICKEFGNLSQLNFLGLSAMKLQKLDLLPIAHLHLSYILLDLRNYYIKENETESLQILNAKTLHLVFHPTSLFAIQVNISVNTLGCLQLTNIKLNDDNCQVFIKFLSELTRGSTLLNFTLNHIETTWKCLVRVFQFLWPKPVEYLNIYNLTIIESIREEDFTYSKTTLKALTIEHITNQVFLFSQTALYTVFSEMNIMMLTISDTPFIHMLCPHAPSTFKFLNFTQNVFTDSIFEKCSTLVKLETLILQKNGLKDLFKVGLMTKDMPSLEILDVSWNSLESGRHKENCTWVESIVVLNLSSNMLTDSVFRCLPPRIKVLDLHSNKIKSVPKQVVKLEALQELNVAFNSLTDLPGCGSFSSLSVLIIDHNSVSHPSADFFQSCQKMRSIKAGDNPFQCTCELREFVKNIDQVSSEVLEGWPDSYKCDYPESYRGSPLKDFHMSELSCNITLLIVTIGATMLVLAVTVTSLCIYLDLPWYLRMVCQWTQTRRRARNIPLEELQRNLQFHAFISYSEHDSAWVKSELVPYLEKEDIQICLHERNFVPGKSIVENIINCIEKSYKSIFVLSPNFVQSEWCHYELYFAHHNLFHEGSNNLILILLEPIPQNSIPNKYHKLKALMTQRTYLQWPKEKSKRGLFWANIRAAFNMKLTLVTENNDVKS
Experimental: as §1, §2

[6] = tested on: human peripheral blood mononuclear cells (PBMCs); assay: Cytokine production in isolated human PBMCs; details: for EC50: Homo sapiens, PBMC
Experimental: as §2

[7] = tested on: human whole blood; assay: Co-culture of human whole blood, IL-12 and IL-10 production
Text: FIG. 9 is two graphs depicting that VTX-378 stimulates production of IL-12 and IL-10.

EC50 [1]: ~2000 nM | activity on TLR2 [2]: no detectable activity | activity on TLR4 [3]: minimal to no activity | activity on TLR5 [4]: no detectable activity | activity on TLR6 [5]: no detectable activity
Compound: CCCN(CCC)C(=O)C1=Cc2ccc(-c3ccc(C(=O)N4CCCC4)cc3)cc2N=C(N)C1 [VTX-378]
EC50 ([6]; analyte IL-10, read-out: EC50, IL-10 production): 120 nM | EC50 ([6]; analyte IL-12p40, read-out: EC50, IL-12p40 production): 230 nM | EC50 ([6]; analyte IL-12p70, read-out: EC50, IL-12p70 production): 220 nM | Mean Mediator Level ± SEM, IL-10 ([6]; VTX-378 1.6 uM): 72 ± 29 pg/mL | Mean Mediator Level ± SEM, IL-12p70 ([6]; VTX-378 1.6 uM): 38 ± 10 pg/mL | Mean Mediator Level ± SEM, IL-12p40 ([6]; VTX-378 1.6 uM, *p < 0.05 to Control): 140 ± 32* pg/mL | production of Th-1 cytokines and chemokines including IL-12, IFN, MCP-1 and MIP-1β ([6]; incubation with isolated human PBMCs): stimulated PBMCs to produce | production of IL-10 [7]: dose dependent increase | production of IL-12 [7]: dose dependent increase
